As a reminder, the Ki is the equilibrium dissociation constant of an inhibitor or competing ligand from its target. Read a low Ki as tighter binding. Usually inhibition stands for the relative decrease from the control value, in per cent.

Drawing on article PMC6171417, “Carbonic anhydrase inhibition with a series of novel benzenesulfonamide-triazole conjugates” (Journal of Enzyme Inhibition and Medicinal Chemistry, 2018), this text covers Ki and inhibition for 1 compound.

SMILES strings stand for the structures.

The target of one test is T1, hCA I (Homo sapiens, UniProt P00915).
T1 construct: gene CA1; recombinant, obtained in-house as reported earlier; cytosolic
T1 sequence (P00915 2-261): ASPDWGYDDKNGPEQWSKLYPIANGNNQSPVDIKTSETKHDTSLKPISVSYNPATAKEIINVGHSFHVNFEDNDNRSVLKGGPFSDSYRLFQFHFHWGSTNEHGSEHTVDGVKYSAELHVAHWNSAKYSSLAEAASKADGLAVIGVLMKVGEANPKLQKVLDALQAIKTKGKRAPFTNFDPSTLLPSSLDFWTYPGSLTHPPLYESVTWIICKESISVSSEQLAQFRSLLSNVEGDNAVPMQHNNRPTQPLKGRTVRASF
The test can be described thus: stopped-flow CO2 hydrase assay. The test is classed as biochemical. An excerpt:
stopped-flow CO2 hydrase assay on hCA I

Another test addresses T2, hCA IX (Homo sapiens, UniProt Q16790).
T2 construct: gene CA9; recombinant, obtained in-house as reported earlier
Description: stopped-flow CO2 hydrase assay. The conditions noted are these: CO2 […], […] Hepes pH […] Na2SO4, […] phenol red, […] min pre-incubation at room temperature. It counts as biochemical. The source says: stopped-flow CO2 hydrase assay on hCA IX

The target of the next test is T3, hCA IV (Homo sapiens, UniProt P22748).
T3 construct: gene CA4; recombinant, obtained in-house as reported earlier
T3 sequence (P22748 19-284): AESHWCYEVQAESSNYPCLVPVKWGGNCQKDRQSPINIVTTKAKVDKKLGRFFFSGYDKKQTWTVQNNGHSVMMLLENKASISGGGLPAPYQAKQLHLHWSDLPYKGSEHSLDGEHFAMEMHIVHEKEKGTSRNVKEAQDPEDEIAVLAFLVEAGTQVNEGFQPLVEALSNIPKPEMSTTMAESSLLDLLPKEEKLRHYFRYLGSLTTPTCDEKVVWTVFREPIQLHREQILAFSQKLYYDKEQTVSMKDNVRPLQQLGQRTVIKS
The test can be described thus: stopped-flow CO2 hydrase assay. The test is classed as biochemical. An excerpt: stopped-flow CO2 hydrase assay on hCA IV

Another test deals with T4, hCA II (Homo sapiens, UniProt P00918).
T4 construct: gene CA2; recombinant, obtained in-house as reported earlier; cytosolic
The test can be described thus: stopped-flow CO2 hydrase assay. It counts as biochemical. An excerpt: stopped-flow CO2 hydrase assay on hCA II

The next test concerns A498. The test can be described thus: cells. The conditions noted are these: Homo sapiens, A498; growth inhibition (GI%), single dose. The arrangement: species or system NCI human tumour cell line panel; NCI one-dose anti-proliferative screen, human tumour cell line panel, growth inhibition percent (GI%).
The next test has as its system ACHN. Description: cells. Set-up: species or system NCI human tumour cell line panel; NCI one-dose anti-proliferative screen, human tumour cell line panel, growth inhibition percent (GI%). The conditions noted are these: Homo sapiens, ACHN; growth inhibition (GI%), single dose.
In a further test the test system is BT-549. The test can be described thus: cells. The conditions noted are these: Homo sapiens, BT-549; growth inhibition (GI%), single dose. Set-up: species or system NCI human tumour cell line panel; NCI one-dose anti-proliferative screen, human tumour cell line panel, growth inhibition percent (GI%).
The subject of another test is EKVX. Description: cells. Set-up: species or system NCI human tumour cell line panel; NCI one-dose anti-proliferative screen, human tumour cell line panel, growth inhibition percent (GI%). The conditions noted are these: Homo sapiens, EKVX; growth inhibition (GI%), single dose.
The test system of the next test is HL-60(TB). The test can be described thus: cells. The arrangement: species or system NCI human tumour cell line panel; NCI one-dose anti-proliferative screen, human tumour cell line panel, growth inhibition percent (GI%). The settings on record: Homo sapiens, HL-60; growth inhibition (GI%), single dose.
In the next test the test system is HOP-62. Description: cells. The arrangement: species or system NCI human tumour cell line panel; NCI one-dose anti-proliferative screen, human tumour cell line panel, growth inhibition percent (GI%). The conditions noted are these: Homo sapiens, HOP-62; growth inhibition (GI%), single dose.
Another test has as its system LOX IMVI. Description: cells. Set-up: species or system NCI human tumour cell line panel; NCI one-dose anti-proliferative screen, human tumour cell line panel, growth inhibition percent (GI%). The settings on record: Homo sapiens, LOX IMVI; growth inhibition (GI%), single dose.
The subject of another test is M14. The test can be described thus: cells. The conditions noted are these: Homo sapiens, M14; growth inhibition (GI%), single dose. The arrangement: species or system NCI human tumour cell line panel; NCI one-dose anti-proliferative screen, human tumour cell line panel, growth inhibition percent (GI%).
A further test deals with MALME-3M. Description: cells. Set-up: species or system NCI human tumour cell line panel; NCI one-dose anti-proliferative screen, human tumour cell line panel, growth inhibition percent (GI%). The conditions noted are these: Homo sapiens, Malme-3M; growth inhibition (GI%), single dose.
A further test concerns MDA-MB-468. Description: cells. The conditions noted are these: Homo sapiens, MDA-MB-468; growth inhibition (GI%), single dose. The arrangement: species or system NCI human tumour cell line panel; NCI one-dose anti-proliferative screen, human tumour cell line panel, growth inhibition percent (GI%).
The next test has as its system RPMI-8226. The test can be described thus: cells. Set-up: species or system NCI human tumour cell line panel; NCI one-dose anti-proliferative screen, human tumour cell line panel, growth inhibition percent (GI%). The settings on record: Homo sapiens, RPMI-8226; growth inhibition (GI%), single dose.
Another test deals with SF-539. The test can be described thus: cells. The arrangement: species or system NCI human tumour cell line panel; NCI one-dose anti-proliferative screen, human tumour cell line panel, growth inhibition percent (GI%). The settings on record: Homo sapiens, SF-539; growth inhibition (GI%), single dose.
The test system of another test is SN12C. Description: cells. Set-up: species or system NCI human tumour cell line panel; NCI one-dose anti-proliferative screen, human tumour cell line panel, growth inhibition percent (GI%). The settings on record: Homo sapiens, SN12C; growth inhibition (GI%), single dose.
Another test deals with SNB-19. Description: cells. The conditions noted are these: Homo sapiens, SNB-19; growth inhibition (GI%), single dose. Set-up: species or system NCI human tumour cell line panel; NCI one-dose anti-proliferative screen, human tumour cell line panel, growth inhibition percent (GI%).
The next test has as its system SR. The test can be described thus: cells. The arrangement: species or system NCI human tumour cell line panel; NCI one-dose anti-proliferative screen, human tumour cell line panel, growth inhibition percent (GI%). The settings on record: Homo sapiens, SR; growth inhibition (GI%), single dose.
The next test relates to SW-620. The test can be described thus: cells. Set-up: species or system NCI human tumour cell line panel; NCI one-dose anti-proliferative screen, human tumour cell line panel, growth inhibition percent (GI%). The conditions noted are these: Homo sapiens, SW-620; growth inhibition (GI%), single dose.
The next test has as its system UO-31. The test can be described thus: cells. The arrangement: species or system NCI human tumour cell line panel; NCI one-dose anti-proliferative screen, human tumour cell line panel, growth inhibition percent (GI%). The settings on record: Homo sapiens, UO-31; growth inhibition (GI%), single dose.

As for `CN(C)c1ccc(-c2nc3c(nnn3-c3ccc(S(N)(=O)=O)cc3)c(N)c2C#N)cc1` [compound 17, 4-(7-amino-6-cyano-5-(4-(dimethylamino)phenyl)-3H-[1,2,3]triazolo[4,5-b]pyridin-3-yl)benzenesulfonamide], the inhibition constant Ki on hCA I is 683 nM; on hCA IX it was 35.1 nM; on hCA IV, 473 nM; on hCA II, 56.8 nM. Also, the inhibition at 10 µM in the test on A498 worked out at 1.8%; in the test with ACHN, 9.3%; in the test with BT-549, 0.3%; in the test on EKVX, 17.2%; in the test with HL-60(TB), 12.5%; in the test with HOP-62, 21.7%. The inhibition at 10 µM in the test with LOX IMVI was determined as 9.6%; in the test on M14 it was 3.5%; in the test on MALME-3M it was 0.4%; in the test with MDA-MB-468 it was 3.2%; in the test with RPMI-8226 it was 12.5%; with SF-539, 2.7%. Further, the inhibition at 10 µM in the test with SN12C turned out to be 4.7%; in the test on SNB-19 it was 0.8%; in the test on SR it was 3.2%; in the test on SW-620, 2.7%; with UO-31, 29.9%.
